Biological target: human Nav1.7 (Homo sapiens (Human), UniProt Q15858)
Assay: FLIPR sodium dye assay (CoroNa Green) for sodium channel blocking activity in recombinant Nav1.7/HEK293 cells
Type: cell-based

Chain of human Nav1.7 (Q15858 with tags, fused parts or gaps limits assumed): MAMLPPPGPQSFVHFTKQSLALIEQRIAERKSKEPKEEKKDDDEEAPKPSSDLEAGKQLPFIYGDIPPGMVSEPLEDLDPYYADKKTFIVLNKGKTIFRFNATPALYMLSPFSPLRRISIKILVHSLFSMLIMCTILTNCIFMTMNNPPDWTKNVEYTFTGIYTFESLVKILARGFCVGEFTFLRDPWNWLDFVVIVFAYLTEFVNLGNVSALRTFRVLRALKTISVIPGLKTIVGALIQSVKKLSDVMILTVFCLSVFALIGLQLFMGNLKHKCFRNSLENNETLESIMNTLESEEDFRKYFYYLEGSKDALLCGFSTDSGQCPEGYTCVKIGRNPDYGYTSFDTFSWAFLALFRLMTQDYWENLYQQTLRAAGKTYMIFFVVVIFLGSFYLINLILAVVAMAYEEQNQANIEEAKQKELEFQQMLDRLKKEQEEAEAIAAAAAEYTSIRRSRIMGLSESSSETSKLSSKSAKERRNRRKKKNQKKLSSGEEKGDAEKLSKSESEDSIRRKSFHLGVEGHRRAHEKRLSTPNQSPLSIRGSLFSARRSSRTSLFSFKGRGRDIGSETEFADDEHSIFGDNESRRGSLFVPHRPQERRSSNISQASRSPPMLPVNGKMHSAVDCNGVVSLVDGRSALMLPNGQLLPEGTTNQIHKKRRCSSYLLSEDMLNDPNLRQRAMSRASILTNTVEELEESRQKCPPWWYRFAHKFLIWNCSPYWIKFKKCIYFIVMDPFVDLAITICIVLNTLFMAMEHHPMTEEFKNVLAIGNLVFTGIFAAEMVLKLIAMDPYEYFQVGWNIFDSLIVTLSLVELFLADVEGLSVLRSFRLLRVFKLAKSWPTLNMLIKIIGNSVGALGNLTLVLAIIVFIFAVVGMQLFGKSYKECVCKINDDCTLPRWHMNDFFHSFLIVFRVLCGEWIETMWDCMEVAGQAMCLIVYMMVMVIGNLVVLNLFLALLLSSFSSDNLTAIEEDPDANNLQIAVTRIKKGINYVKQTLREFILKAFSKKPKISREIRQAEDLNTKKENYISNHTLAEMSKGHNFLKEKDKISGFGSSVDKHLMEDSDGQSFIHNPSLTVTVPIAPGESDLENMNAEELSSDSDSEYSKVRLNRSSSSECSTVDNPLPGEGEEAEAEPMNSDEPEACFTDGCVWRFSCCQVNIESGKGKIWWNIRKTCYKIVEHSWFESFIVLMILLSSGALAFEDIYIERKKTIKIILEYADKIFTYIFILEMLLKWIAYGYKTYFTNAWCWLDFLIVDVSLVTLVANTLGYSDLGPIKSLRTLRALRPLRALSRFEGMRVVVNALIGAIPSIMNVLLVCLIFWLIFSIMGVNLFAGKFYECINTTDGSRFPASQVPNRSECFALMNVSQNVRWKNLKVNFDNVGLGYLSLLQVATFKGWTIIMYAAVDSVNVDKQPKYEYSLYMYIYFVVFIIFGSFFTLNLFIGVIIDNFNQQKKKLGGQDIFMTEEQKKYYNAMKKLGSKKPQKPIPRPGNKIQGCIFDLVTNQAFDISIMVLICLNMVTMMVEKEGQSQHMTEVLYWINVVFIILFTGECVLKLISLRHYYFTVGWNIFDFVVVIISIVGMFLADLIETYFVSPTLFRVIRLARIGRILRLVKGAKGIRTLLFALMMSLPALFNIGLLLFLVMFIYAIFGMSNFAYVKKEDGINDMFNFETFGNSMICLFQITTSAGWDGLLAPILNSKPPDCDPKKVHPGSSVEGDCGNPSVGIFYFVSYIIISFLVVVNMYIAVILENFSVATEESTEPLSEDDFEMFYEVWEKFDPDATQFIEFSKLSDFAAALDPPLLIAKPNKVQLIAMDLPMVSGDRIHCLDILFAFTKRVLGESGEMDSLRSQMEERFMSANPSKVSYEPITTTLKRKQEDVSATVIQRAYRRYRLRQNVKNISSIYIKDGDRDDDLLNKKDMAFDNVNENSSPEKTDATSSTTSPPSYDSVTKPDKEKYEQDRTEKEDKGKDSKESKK

Row | Structure (SMILES) | IC50 [µM]
1 | N#Cc1nc(N[C@H]2CCNC2=O)nc(-c2ccc(Oc3ccc(OC(F)(F)F)cc3)cc2)n1 [Compound 1, (S)-4-((2-oxopyrrolidin-3-yl)amino)-6-(4-(4-(trifluoromethoxy)phenoxy)phenyl)-1,3,5-triazine-2-carbonitrile] | 2.25 ± 0.37
2 | NC(=O)c1nc(N[C@H]2CCNC2=O)nc(-c2ccc(Oc3ccc(OC(F)(F)F)cc3)cc2)n1 [Compound 2, (S)-4-((2-oxopyrrolidin-3-yl)amino)-6-(4-(4-(trifluoromethoxy)phenoxy)phenyl)-1,3,5-triazine-2-carboxamide] | 0.326 ± 0.116
3 | CCN(c1nc(C(N)=O)nc(-c2ccc(Oc3ccc(OC(F)(F)F)cc3)cc2)n1)C(C)C [Compound 4, 4-(ethyl(isopropyl)amino)-6-(4-(4-(trifluoromethoxy)phenoxy)phenyl)-1,3,5-triazine-2-carboxamide] | > 20
4 | CCN(c1nc(C(N)=O)nc(-c2ccc(Oc3ccc(C(F)(F)F)cn3)cc2)n1)C(C)C [Compound 5, 4-(ethyl(isopropyl)amino)-6-(4-((5-(trifluoromethyl)pyridin-2-yl)oxy)phenyl)-1,3,5-triazine-2-carboxamide] | 0.645 ± 0.14
5 | N#Cc1nc(-c2ccc(Oc3ccc(C(F)(F)F)cn3)cc2)nc(N2CCOCC2)n1 [Compound 8, 4-morpholino-6-(4-((5-(trifluoromethyl)pyridin-2-yl)oxy)phenyl)-1,3,5-triazine-2-carbonitrile] | 8.09 ± 0.959
6 | NC(=O)c1nc(-c2ccc(Oc3ccc(OC(F)(F)F)cc3)cc2)nc(N2CCOCC2)n1 [Compound 9, 4-morpholino-6-(4-(4-(trifluoromethoxy)phenoxy)phenyl)-1,3,5-triazine-2-carboxamide] | 0.596 ± 0.102
7 | NC(=O)c1nc(-c2ccc(Oc3ccc(C(F)(F)F)cn3)cc2)nc(N2CCOCC2)n1 [Compound 10, 4-morpholino-6-(4-((5-(trifluoromethyl)pyridin-2-yl)oxy)phenyl)-1,3,5-triazine-2-carboxamide] | 0.353 ± 0.1
8 | NC(=O)c1nc(N)nc(N2CC(Oc3ccc(C(F)(F)F)cn3)C2)n1 [Compound 11, 4-amino-6-(3-((5-(trifluoromethyl)pyridin-2-yl)oxy)azetidin-1-yl)-1,3,5-triazine-2-carboxamide] | > 20
9 | NC(=O)c1nc(NCCO)nc(-c2ccc(Oc3ccc(C(F)(F)F)cn3)cc2)n1 [Compound 12, 4-((2-hydroxyethyl)amino)-6-(4-((5-(trifluoromethyl)pyridin-2-yl)oxy)phenyl)-1,3,5-triazine-2-carboxamide] | 0.243 ± 0.125
10 | NC(=O)c1nc(N)nc(-c2ccc(Oc3ccc(C(F)(F)F)cn3)cc2)n1 [Compound 13, 4-amino-6-(4-((5-(trifluoromethyl)pyridin-2-yl)oxy)phenyl)-1,3,5-triazine-2-carboxamide] | > 20
11 | NC(=O)c1nc(N[C@H]2CCNC2=O)nc(N2CC(Oc3ccc(C(F)(F)F)cn3)C2)n1 [Compound 14, (S)-4-((2-oxopyrrolidin-3-yl)amino)-6-(3-((5-(trifluoromethyl)pyridin-2-yl)oxy)azetidin-1-yl)-1,3,5-triazine-2-carboxamide] | > 20

Reference: patent publication US9120786B2, “Triazine carboxamides as sodium channel blockers” (priority 2013, dated 2015)
